From ChEMBL document CHEMBL6177962, “Design, synthesis and biological evaluation of 2-arylbenzo[b]furan-4-vinylcarbonyl derivatives based on Salvianolic acid C as antioxidant neuroprotective agents for the treatment of ischemic stroke” (Eur J Med Chem, 2025) come the findings set out here.

Active and inactive are the calls of the source. The calls are words filed in the database; no cut-off is given here.

For series [1], the system named is PC-12. Kind of series: Cytotoxicity against rat PC12 cells assessed as cell viability at 40 uM incubated for 24 hrs by CCK-8 assay relative to control. The following applies: read-out: Activity. The series is classed as functional. In general terms: Tetrazolium dyes change colour on reduction, which living cells bring about.
For series [2], the system named is PC-12. Kind of series: Cytotoxicity against rat PC12 cells assessed as cell viability at 10 uM incubated for 24 hrs by CCK-8 assay relative to control. The series is classed as functional. The following applies: read-out: Activity.
The test system of series [3] is PC-12. Kind of series: Neuroprotective activity against t-BHP induced oxidative damage in rat PC12 cells model assessed as cell viability at 2.5 to 20 uM incubated for 24 hrs by CCK-8 assay. The series is classed as functional, cell-based. The settings on record: dose 2.5-20 µM.
Series [4] deals with PC-12. Kind of series: Antioxidant activity in t-BHP -induced rat PC12 cells at 2.5 to 20 uM. The series is classed as functional, cell-based. The settings on record: dose 2.5-20 µM.
Series [5] concerns Rattus norvegicus. Kind of series: […] of HO-1 level rat model at 5 to 20 mg/kg, iv by Western blot analysis. The series is classed as functional, organism-based. The following applies: dose 5-20 mg/kg. (In general: A western blot detects proteins with antibodies after separation by electrophoresis.)
The subject of series [6] is PC-12. Kind of series: Neuroprotective activity against t-BHP induced oxidative damage in rat PC12 cells model assessed as reduction in intracellular ROS level at 10 uM incubated for 24 hrs by DCFH-DA probe based analysis. The series is classed as functional, cell-based.
Series [7] concerns the target Kelch-like ECH-associated protein 1 (Rattus norvegicus) (UniProt P57790). Kind of series: Binding affinity to KEAP1 in rat PC12 cells assessed as thermal stabilization at 10 uM incubated for 3 hrs at 4 degreeC by CETSA. The series is classed as cell-based.
Series [8] deals with PC-12. Kind of series: Downregulation of KEAP1 expression in rat PC12 cells at 10 uM incubated for 3 hrs by Western blot analysis. The series is classed as functional, cell-based.
The test system of series [9] is Rattus norvegicus. Kind of series: Neuroprotective activity against cerebral ischemia-reperfusion injury in MCAO rat model assessed as decrease in apoptotic cells in cerebral brain at 20 mg/kg, iv treated after 2 hrs ischemia followed by reperfusion measured after 1 week of post-reperfusion by TUNEL staining based analysis. The series is classed as functional, organism-based. The settings on record: time 1.0 weeks.

The subject of series [10] is Rattus norvegicus. The series can be described thus: Neuroprotective activity against cerebral ischemia-reperfusion injury in MCAO rat model assessed as reduction in infarct area at 20 mg/kg, iv treated after 2 hrs ischemia followed by reperfusion measured after 1 week of post-reperfusion by TTC staining based analysis. The series is classed as functional, organism-based. The settings on record: time 1.0 weeks.

The subject of series [11] is PC-12. The series can be described thus: Neuroprotective activity against t-BHP induced oxidative damage in rat PC12 cells model assessed as increase in NRF2 level incubated for 24 hrs by Western blot analysis. The series is classed as functional, cell-based. The settings on record: dose 2.5-10 µM.
Series [12] concerns Rattus norvegicus. Kind of series: In vivo activation of Nrf2 pathway in MCAO induced rat model assessed as increase in NRF2 level in brain at 5 to 20 mg/kg, iv by immunofluorescence analysis. The following applies: dose 5-20 mg/kg. The series is classed as functional, organism-based.
For series [13], the system named is PC-12. The series can be described thus: Neuroprotective activity against t-BHP induced oxidative damage in rat PC12 cells model assessed as attenuation of intracellular ROS level at 2.5 uM incubated for 24 hrs by DCFH-DA probe based analysis. The series is classed as functional, cell-based.
In series [14] the test system is PC-12. The series can be described thus: Neuroprotective activity against t-BHP induced oxidative damage in rat PC12 cells model assessed as decrease in MDA level at 2.5 uM incubated for 24 hrs. The series is classed as functional, cell-based.
Series [15] relates to PC-12. Kind of series: Neuroprotective activity against t-BHP induced oxidative damage in rat PC12 cells model assessed as increase in SOD activity at 5 uM incubated for 24 hrs. The series is classed as functional, cell-based.
Series [16] relates to Rattus norvegicus. Kind of series: Neuroprotective activity against cerebral ischemia-reperfusion injury in MCAO rat model assessed as decrease in apoptotic cells in cerebral brain at 10 mg/kg, iv treated after 2 hrs ischemia followed by reperfusion measured after 1 week of post-reperfusion by TUNEL staining based analysis. The following applies: time 1.0 weeks. The series is classed as functional, organism-based.

Series [17] concerns PC-12. Kind of series: Neuroprotective activity against t-BHP induced oxidative damage in rat PC12 cells model assessed as attenuation of intracellular ROS level at 5 uM incubated for 24 hrs by DCFH-DA probe based analysis. The series is classed as functional, cell-based.
For series [18], the system named is PC-12. Kind of series: Neuroprotective activity against t-BHP induced oxidative damage in rat PC12 cells model assessed as decrease in MDA level at 10 uM incubated for 24 hrs. The series is classed as functional, cell-based.
The subject of series [19] is Rattus norvegicus. Kind of series: Upregulation of NRF2 level in MCAO rat model at 5 to 20 mg/kg, iv by Western blot analysis. The following applies: dose 5-20 mg/kg. The series is classed as functional, organism-based.
The test system of series [20] is PC-12. The series can be described thus: Neuroprotective activity against t-BHP induced oxidative damage in rat PC12 cells model assessed as decrease in MDA level at 5 uM incubated for 24 hrs. The series is classed as functional, cell-based.
In series [21] the test system is Rattus norvegicus. The series can be described thus: In vivo activation of Nrf2 pathway in MCAO induced rat model assessed as increase in NRF2 level in nucleus at 5 to 20 mg/kg, iv by Western blot analysis. The series is classed as functional, organism-based. The following applies: dose 5-20 mg/kg.
The subject of series [22] is PC-12. Kind of series: Neuroprotective activity against t-BHP induced oxidative damage in rat PC12 cells model assessed as cell viability at 10 uM incubated for 24 hrs by CCK-8 assay relative to control. The series is classed as functional. The following applies: read-out: Activity.
Series [23] deals with PC-12. Kind of series: Neuroprotective activity against t-BHP induced oxidative damage in rat PC12 cells model assessed as increase in SOD activity at 10 uM incubated for 24 hrs. The series is classed as functional, cell-based.
For series [24], the system named is Rattus norvegicus. The series can be described thus: Neuroprotective activity against cerebral ischemia-reperfusion injury in MCAO rat model assessed as reduction in infarct area at 5 to 20 mg/kg, iv treated after 2 hrs ischemia followed by reperfusion measured after 1 week of post-reperfusion by TTC staining based analysis. The series is classed as functional, organism-based. The settings on record: dose 5-20 mg/kg, time 1.0 weeks.

Series [25] deals with Rattus norvegicus. The series can be described thus: Neuroprotective activity against cerebral ischemia-reperfusion injury in MCAO rat model at 10 mg/kg, iv treated after 2 hrs ischemia followed by reperfusion measured after 1 week of post-reperfusion by barnes maze test. The series is classed as functional, organism-based. The settings on record: time 1.0 weeks.
The test system of series [26] is Rattus norvegicus. Kind of series: In vivo activation of Nrf2 pathway in MCAO induced rat model assessed as increase in NRF2 level in cytoplasm at 5 to 20 mg/kg, iv by Western blot analysis. The series is classed as functional, organism-based. The following applies: dose 5-20 mg/kg.
Series [27] deals with Rattus norvegicus. Kind of series: Neuroprotective activity against cerebral ischemia-reperfusion injury in MCAO rat model assessed as reduction in ROS accumulation in cortex at 5 to 20 mg/kg, iv treated after 2 hrs ischemia followed by reperfusion measured after 1 week of post-reperfusion by dihydroethidium staining based fluorescence microscopic analysis. The series is classed as functional, organism-based. The following applies: dose 5-20 mg/kg, time 1.0 weeks.

Series [28] can be described thus: Permeability of the compound across blood brain barrier in mouse BEND3 cells at 10 uM incubated for 24 to 48 hrs by HPLC analysis. The series is classed as ADME, cell-based. The following applies: time 24-48 hrs, read-out: permeability.
In series [29] the test system is PC-12. The series can be described thus: Neuroprotective activity against t-BHP induced oxidative damage in rat PC12 cells model assessed as increase in HO-1 level incubated for 24 hrs by Western blot analysis. The series is classed as functional, cell-based. The settings on record: dose 2.5-10 µM.
For series [30], the system named is PC-12. The series can be described thus: Neuroprotective activity against t-BHP induced oxidative damage in rat PC12 cells model assessed as reduction in intracellular ROS level at 2.5 to 10 uM incubated for 24 hrs by DCFH-DA probe based flow cytometry analysis. The series is classed as functional, cell-based. The settings on record: dose 2.5-10 µM. (In general: Flow cytometry measures light scatter and fluorescence of single cells or particles in a stream.)

Series [31] deals with Rattus norvegicus. The series can be described thus: Neuroprotective activity against cerebral ischemia-reperfusion injury in MCAO rat model assessed as decrease in apoptotic cells in cerebral brain at 5 mg/kg, iv treated after 2 hrs ischemia followed by reperfusion measured after 1 week of post-reperfusion by TUNEL staining based analysis. The series is classed as functional, organism-based. The following applies: time 1.0 weeks.

Series [32] in a line: Metabolic stability in rat liver microsome assessed as parent compound remaining after 60 mins. The series is classed as ADME. The settings on record: liver microsomes, read-out: Stability.
For series [33], the system named is PC-12. Kind of series: Neuroprotective activity against t-BHP induced oxidative damage in rat PC12 cells model assessed as increase in SOD activity at 2.5 uM incubated for 24 hrs. The series is classed as functional, cell-based.
Series [34] relates to Rattus norvegicus. Kind of series: Neuroprotective activity against cerebral ischemia-reperfusion injury in MCAO rat model assessed as reduction in ROS accumulation in cortex at 10 mg/kg, iv treated after 2 hrs ischemia followed by reperfusion measured after 1 week of post-reperfusion by dihydroethidium staining based fluorescence microscopic analysis. The series is classed as functional, organism-based. The following applies: time 1.0 weeks.

The test system of series [35] is Rattus norvegicus. Kind of series: Neuroprotective activity against cerebral ischemia-reperfusion injury in MCAO rat model assessed as reduction in infarct area at 10 mg/kg, iv treated after 2 hrs ischemia followed by reperfusion measured after 1 week of post-reperfusion by TTC staining based analysis. The series is classed as functional, organism-based. The following applies: time 1.0 weeks.

Series [36] has as its system PC-12. Kind of series: Neuroprotective activity against t-BHP induced oxidative damage in rat PC12 cells model assessed as reduction in intracellular ROS level at 10 uM incubated for 24 hrs by DCFH-DA probe based flow cytometry analysis. The series is classed as functional, cell-based.

Chain of Kelch-like ECH-associated protein 1 (Rattus norvegicus) (P57790 whole entry): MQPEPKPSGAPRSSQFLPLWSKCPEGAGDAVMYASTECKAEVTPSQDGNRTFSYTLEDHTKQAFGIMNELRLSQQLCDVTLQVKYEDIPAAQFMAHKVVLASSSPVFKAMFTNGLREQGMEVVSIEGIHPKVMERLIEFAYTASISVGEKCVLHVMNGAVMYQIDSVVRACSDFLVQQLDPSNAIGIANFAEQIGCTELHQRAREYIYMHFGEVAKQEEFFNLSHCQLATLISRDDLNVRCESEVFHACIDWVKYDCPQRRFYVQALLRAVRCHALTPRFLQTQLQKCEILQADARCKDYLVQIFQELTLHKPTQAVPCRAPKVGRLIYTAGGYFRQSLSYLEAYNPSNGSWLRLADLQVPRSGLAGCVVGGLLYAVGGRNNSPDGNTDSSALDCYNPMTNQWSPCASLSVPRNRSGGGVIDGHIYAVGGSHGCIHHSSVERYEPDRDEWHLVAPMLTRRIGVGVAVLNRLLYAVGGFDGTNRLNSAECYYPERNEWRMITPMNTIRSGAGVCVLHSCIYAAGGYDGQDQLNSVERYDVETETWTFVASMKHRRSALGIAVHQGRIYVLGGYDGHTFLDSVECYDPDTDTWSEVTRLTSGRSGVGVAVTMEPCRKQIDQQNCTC

`COc1ccc(-c2cc3c(/C=C/C(=O)c4cc(OC)c(OC)c(OC)c4)ccc(OC)c3o2)cc1OC`: the viability at 40 µM with PC-12 [1] came to 105%. Further, the viability at 10 µM with PC-12 [2] is 95.5%. Besides, the outcome in the series on PC-12 [3] and in the series on PC-12 [4] was Active.

For `COc1ccc(-c2cc3c(/C=C/C(=O)NCCc4ccc(O)c(O)c4)ccc(OC)c3o2)cc1`, the viability at 40 µM in the series with PC-12 [1] came out at 98.2%. Moreover, the viability at 10 µM with PC-12 [2] is 99.2%. Moreover, the outcome with PC-12 [3] and in the series with PC-12 [4] was Active.

As for `COc1ccc(/C=C/C(=O)c2ccc(O)c(O)c2)c2cc(-c3ccc(C)cc3)oc12`, the result (in the series on Rattus norvegicus [5]; in the series on PC-12 [6]; in [7]; in the series on PC-12 [8]; in the series on Rattus norvegicus [9]; in the series with Rattus norvegicus [10]) was Active. The result in the series on Rattus norvegicus [12], in the series on PC-12 [13], with PC-12 [14], in the series with PC-12 [15], in the series on Rattus norvegicus [16] and in the series with PC-12 [17] was Active. In addition, the outcome in the series with PC-12 [18], in the series with Rattus norvegicus [19], with PC-12 [20], in the series on PC-12 [23], in the series with Rattus norvegicus [24] and in the series on Rattus norvegicus [25] was Active. Also, the result in the series on Rattus norvegicus [26], with PC-12 [3], with Rattus norvegicus [27], in the series on PC-12 [30], with Rattus norvegicus [31] and in the series with PC-12 [4] was Active. In addition, the outcome in the series with PC-12 [33] was Active. In the series on PC-12 [1], the viability at 40 µM came out at 109%. The Activity entry in the series on PC-12 [11] and in the series with PC-12 [29] was “Dose-dependent-effect” each time. The viability at 10 µM in the series with PC-12 [2] turned out to be 101%; with PC-12 [22], 95%. In addition, the result in the series on Rattus norvegicus [21] was inactive. The Papp at 10 µM in [28] was found to be 7.46 ×10⁻⁶ cm/s. Moreover, the remaining at 1 h in series [32] is 63.8%.

`CC1=NN(c2ccccc2)C(=O)C1`: the result in the series on Rattus norvegicus [34], with PC-12 [6], in the series on Rattus norvegicus [35] and with PC-12 [36] was Active.

Consider `COc1ccc(/C=C/C(=O)NCCc2ccc(O)c(O)c2)c2cc(-c3ccc(C)cc3)oc12`, for which, in the series with PC-12 [1], the viability at 40 µM was determined as 103%. Further, in the series with PC-12 [2], the viability at 10 µM was determined as 99.3%. For the same molecule, the outcome with PC-12 [3] and in the series with PC-12 [4] was Active.
